Measurements as given in PubChem BioAssay (NCI).
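Step 1: Grow cells in 96-well plates. Step 2: Expose to compound for 48 hours at 5 concentrations. Step 3: Interpolate endpoints linearly; if unreached, use highest concentration. The concentration for 50% growth inhibition is given as GI50. TGI: total growth inhibition.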

Assays:
Assay in all cases: NCI tumour cell line growth inhibition, 48 h
[1] = system: ACHN renal
[2] = system: CAKI-1 renal
[3] = system: HCT-116 colon
[4] = system: HOP-92 NSCLC
[5] = system: K-562 leukemia
[6] = system: NCI-H522 lung
[7] = system: OVCAR-4 ovarian
[8] = system: PC-3 prostate
[9] = system: TK-10 renal
[10] = system: UO-31 renal

Structure (SMILES) | TGI [1] | TGI [2] | TGI [3] | TGI [4] | TGI [5] | GI50 [6] | TGI [6] | TGI [7] | GI50 [8] | TGI [8] | TGI [9] | TGI [10] | GI50 [1] | GI50 [2] | GI50 [3] | GI50 [4] | GI50 [5] | GI50 [7] | GI50 [9] | GI50 [10]
N#CC1=C(N)Oc2c(ccc3cccnc23)C1c1ccccc1 (configuration not stated) | > 100 µM | > 100 µM | 21.3 µM | > 83.4 µM | > 100 µM | 0.299 µM | 12.7 µM | 98.9 µM | 2.8 µM | > 100 µM | 86.8 µM | > 100 µM | – | – | – | – | – | – | – | –
O=C(Oc1c(Cl)c(Cl)c(Cl)c(Cl)c1Cl)C1CCCN1C(=O)OCc1ccccc1 (configuration not stated) | 8.09 µM | 8.52 µM | 10.7 µM | 6.1 µM | 19.3 µM | 2.47 µM | 6.84 µM | 10.6 µM | 2.95 µM | 11.6 µM | 8.85 µM | 12.3 µM | 2.62 µM | 2.8 µM | 3.43 µM | 1.99 µM | 3.43 µM | 2.66 µM | 3.13 µM | 2.9 µM
COc1ccccc1C(=O)Nc1ccc(Cl)c(C(=O)OC(C)C)c1 | 28.4 µM | > 100 µM | > 95 µM | > 100 µM | > 100 µM | – | > 81.4 µM | > 100 µM | – | > 100 µM | > 100 µM | 27.9 µM | – | – | – | – | – | – | – | –
CN1CCN(c2ccc(NC(=O)c3cncnc3Nc3ccc4c(ccn4Cc4cccc(F)c4)c3)cc2)CC1 | 5.89 µM | 7.75 µM | 3.55 µM | 8.42 µM | 1.2 µM | 1.63 µM | 6.59 µM | 8.66 µM | 2.06 µM | 6.74 µM | 11.1 µM | 7.83 µM | 1.73 µM | 3.6 µM | 1 µM | 3.54 µM | 0.55 µM | 3.97 µM | 5.87 µM | 3.8 µM
COc1ccccc1CNC(=O)/C=C/c1ccc(O)c(O)c1 | > 100 µM | > 100 µM | > 100 µM | > 100 µM | > 100 µM | 22.7 µM | > 100 µM | > 100 µM | > 100 µM | > 100 µM | > 100 µM | > 100 µM | 24.5 µM | 30.3 µM | 52.6 µM | 48.4 µM | 39.6 µM | 40 µM | 17.9 µM | 20.5 µM
